In patent US20240150377A1, “MODULATORS OF CYSTIC FIBROSIS TRANSMEMBRANE CONDUCTANCE REGULATOR” (VERTEX PHARMACEUTICALS INCORPORATED, priority 2020, published 2024) one finds activation, EC50 and Emax data, which are given here for 42 compounds.

Read-outs that look alike come from different tables or passages of the source.

This test addresses T1, CFTR (Homo sapiens, UniProt P13569, DEL508-508).
T1 construct: endogenous in cells; host or cells: primary human bronchial epithelial cells from CF subjects (F508del/MF-HBE), differentiated at air-liquid interface
Kind of test: HBE assay: Ussing chamber assay of CFTR-mediated short-circuit currents. Type of test: cell-based. The note with it: Table 12; for activation at 10 µM: read-out: HBE Activity at 10 μM (%); for Emax: read-out: HBE Max Activity (%). The method in brief:
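CFTR-mediated Isc (μA/cm²) equals the peak response to apical 20 μM forskolin minus the residual after a 20 μM each BPO/GlyH-101/CFTR inhibitor 172 cocktail, recorded in Ussing chambers at Vhold 0 mV, 37 °C, pH 7.4, with 30 μM apical amiloride. Cells were F508del/MF HBE cultures preincubated 18-24 h with corrector (concentration range or 10 μM) plus 1 μM ivacaftor in 20% human serum.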

T1 sequence (P13569 with tags, fused parts or gaps DEL508-508): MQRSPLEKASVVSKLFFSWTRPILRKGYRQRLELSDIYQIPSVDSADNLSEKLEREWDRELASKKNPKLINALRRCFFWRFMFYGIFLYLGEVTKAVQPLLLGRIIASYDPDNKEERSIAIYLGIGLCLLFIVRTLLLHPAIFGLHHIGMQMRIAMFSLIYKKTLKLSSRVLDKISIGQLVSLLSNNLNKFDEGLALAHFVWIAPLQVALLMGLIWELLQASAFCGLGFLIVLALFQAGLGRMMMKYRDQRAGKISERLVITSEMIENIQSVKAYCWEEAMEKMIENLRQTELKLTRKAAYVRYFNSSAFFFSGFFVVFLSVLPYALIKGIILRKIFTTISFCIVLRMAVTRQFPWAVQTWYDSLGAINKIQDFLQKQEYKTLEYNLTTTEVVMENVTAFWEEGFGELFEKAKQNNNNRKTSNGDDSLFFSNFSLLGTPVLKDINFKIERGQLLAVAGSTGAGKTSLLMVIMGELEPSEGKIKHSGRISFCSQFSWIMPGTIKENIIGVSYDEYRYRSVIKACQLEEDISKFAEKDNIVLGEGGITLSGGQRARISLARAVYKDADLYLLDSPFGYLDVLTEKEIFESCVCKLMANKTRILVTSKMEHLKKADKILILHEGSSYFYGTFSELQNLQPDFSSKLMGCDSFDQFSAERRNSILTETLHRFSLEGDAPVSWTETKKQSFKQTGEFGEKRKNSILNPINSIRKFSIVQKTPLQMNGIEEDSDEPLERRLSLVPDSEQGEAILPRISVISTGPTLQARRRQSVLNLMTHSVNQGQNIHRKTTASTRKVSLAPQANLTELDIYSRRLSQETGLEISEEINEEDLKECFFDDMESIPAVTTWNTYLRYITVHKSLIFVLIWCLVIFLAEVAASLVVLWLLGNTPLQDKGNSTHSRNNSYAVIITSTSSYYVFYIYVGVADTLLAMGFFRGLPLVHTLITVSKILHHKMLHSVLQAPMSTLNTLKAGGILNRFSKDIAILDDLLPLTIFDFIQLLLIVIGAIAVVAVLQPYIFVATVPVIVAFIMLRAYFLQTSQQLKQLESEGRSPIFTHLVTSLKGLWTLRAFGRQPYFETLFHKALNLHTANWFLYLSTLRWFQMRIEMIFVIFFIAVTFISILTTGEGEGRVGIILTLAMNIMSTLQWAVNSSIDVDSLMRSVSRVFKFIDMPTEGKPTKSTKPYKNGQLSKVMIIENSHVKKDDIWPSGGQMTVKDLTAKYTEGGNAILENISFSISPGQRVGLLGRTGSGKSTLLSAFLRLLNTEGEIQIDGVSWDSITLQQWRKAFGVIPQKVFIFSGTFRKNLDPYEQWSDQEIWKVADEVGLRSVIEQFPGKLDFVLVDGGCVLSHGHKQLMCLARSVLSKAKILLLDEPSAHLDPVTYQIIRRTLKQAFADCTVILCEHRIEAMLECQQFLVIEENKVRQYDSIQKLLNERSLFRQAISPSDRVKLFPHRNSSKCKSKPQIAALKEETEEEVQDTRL

As to `COc1cccc(C)c1-c1cc2nc(n1)NS(=O)(=O)c1cccc(c1)C(=O)N(Cc1cncc(N(C)CC(C)(C)C)n1)[C@H](CC(C)(C)C)CO2` [Compound 544], the activation at 10 µM is above 600%. A word on the EC50: it is the concentration that produces a half-maximal response. Take `Cc1cccc(C)c1-c1cc2nc(n1)NS(=O)(=O)c1cccc(c1)C(=O)N(Cc1ncc(N3CC4CC3CO4)cn1)[C@H](CC(C)(C)C)CO2` (some centres unmarked) [Compound 545]: the Emax was above 60%. Moreover, the EC50 (read-out: HBE EC50) was below 1 µM. In the case of `Cc1cccc(C)c1-c1cc2nc(n1)NS(=O)(=O)c1cccc(c1)C(=O)N(Cc1ncc(N3CC4CC3CO4)cn1)[C@H](CC(C)(C)C)CO2` (some centres unmarked) [Compound 546], where the note is “read-out: HBE EC50”, the EC50 is below 1 µM. In the case of `Cc1cccc(C)c1-c1cc2nc(n1)NS(=O)(=O)c1cccc(c1)C(=O)N(Cc1cccc(N3CCCC3C(C)C)n1)[C@H](CC(C)(C)C)CO2` (some centres unmarked) [Compound 547], the Emax is above 60%. Moreover, the EC50 (read-out: HBE EC50) was below 1 µM. For the compound `Cc1cccc(C)c1-c1cc2nc(n1)NS(=O)(=O)c1cccc(c1)C(=O)N(Cc1cccc(N3CCCC3C(C)C)n1)[C@H](CC(C)(C)C)CO2` (some centres unmarked) [Compound 548], where the note is “read-out: HBE EC50”, the EC50 was below 1 µM. With `Cc1cccc(C)c1-c1cc2nc(n1)NS(=O)(=O)c1cccc(c1)C(=O)N(Cc1cccc(N3CCCC3C(F)(F)F)n1)[C@H](CC(C)(C)C)CO2` (some centres unmarked) [Compound 549], the activation at 10 µM is above 600%. As for `Cc1cccc(C)c1-c1cc2nc(n1)NS(=O)(=O)c1cccc(c1)C(=O)N(Cc1cncc(N(C)CC(C)(C)C)n1)[C@H](CC(C)C)CO2` [Compound 551], the Emax is above 60%. In addition, the EC50 (read-out: HBE EC50) is below 1 µM. Take `Cc1cccc(C)c1-c1cc2nc(n1)NS(=O)(=O)c1cccc(c1)C(=O)N(Cc1nccc(N(C)C(C)C)n1)[C@H](CC(C)C)CO2` [Compound 552]: the activation at 10 µM was above 600%. For `Cc1cccc(C)c1-c1cc2nc(n1)NS(=O)(=O)c1cccc(c1)C(=O)N(Cc1ncc(N3CCC(C)(O)C3)cn1)[C@H](CC(C)(C)C)CO2` (some centres unmarked) [Compound 553], the activation at 10 µM was above 600%. Consider `Cc1cccc(C)c1-c1cc2nc(n1)NS(=O)(=O)c1cccc(c1)C(=O)N(Cc1ncc(N3C4CCC3CC4)cn1)[C@H](CC(C)(C)C)CO2` [Compound 554], for which the Emax was above 60%. In addition, the EC50 (HBE EC50 (μM)) was below 1 µM. In the case of `CC(C)=C(C)c1ccnc(CN2C(=O)c3cccc(c3)S(=O)(=O)Nc3nc(cc(-c4c(C)cccc4C)n3)OC[C@H]2CC(C)(C)C)n1` [Compound 555], the activation at 10 µM is above 600%. For the compound `Cc1cccc(C)c1-c1cc2nc(n1)NS(=O)(=O)c1cccc(c1)C(=O)N(Cc1ncc(OC3CCOCC3)cn1)[C@H](CC(C)(C)C)CO2` [Compound 556], the Emax is above 60%. Moreover, the EC50 (read-out: HBE EC50) is below 1 µM. Regarding `Cc1cccc(C)c1-c1cc2nc(n1)NS(=O)(=O)c1cccc(c1)C(=O)N(Cc1ncc(OC(=O)OC(C)(C)C)cn1)[C@H](CC(C)(C)C)CO2` [Compound 557], the activation at 10 µM is above 600%. Regarding `Cc1cccc(C)c1-c1cc2nc(n1)NS(=O)(=O)c1cccc(c1)C(=O)N(Cc1ncc(OC3CCC3)cn1)[C@H](CC(C)(C)C)CO2` [Compound 558], the Emax was above 60%. The concentration for a half-maximal effect (EC50) (read-out: HBE EC50) was below 1 µM. The like results for `Cc1cccc(C)c1-c1cc2nc(n1)NS(=O)(=O)c1cccc(c1)C(=O)N(Cc1ncc(OCCOC(C)C)cn1)[C@H](CC(C)(C)C)CO2` [Compound 559] were, in that order, above 60% and below 1 µM. Taken in the same sequence, the figures for `Cc1cccc(C)c1-c1cc2nc(n1)NS(=O)(=O)c1cccc(c1)C(=O)N(Cc1ncc(OC3CC4(CC4)C3)cn1)[C@H](CC(C)(C)C)CO2` [Compound 560] were above 60% and below 1 µM.

On to `Cc1cccc(C)c1-c1cc2nc(n1)NS(=O)(=O)c1cccc(c1)C(=O)N(Cc1ncc(OC3CCCCC3)cn1)[C@H](CC(C)(C)C)CO2` [Compound 561], for which the activation at 10 µM was above 600% and the Emax was above 60%. Also, the EC50 (read-out: HBE EC50) was below 1 µM. `Cc1cccc(C)c1-c1cc2nc(n1)NS(=O)(=O)c1cccc(c1)C(=O)N(Cc1cccc(N3CCCC34CCC4)n1)[C@H](CC(C)(C)C)CO2` [Compound 562]: the Emax is above 60%. In addition, the EC50 (read-out: HBE EC50) is below 1 µM.

As for `Cc1cccc(C)c1-c1cc2nc(n1)NS(=O)(=O)c1cccc(c1)C(=O)N(Cc1ncc(N3C4CCC3COC4)cn1)[C@H](CC(C)(C)C)CO2` [Compound 563], the Emax is above 60%. Also, where the note is “HBE EC50 (μM)”, the EC50 is below 1 µM. On to `COCCN(c1cccc(CN2C(=O)c3cccc(c3)S(=O)(=O)Nc3nc(cc(-c4c(C)cccc4C)n3)OC[C@H]2CC(C)(C)C)n1)C(C)C` [Compound 564], for which the Emax was above 60%. Also, the EC50 (read-out: HBE EC50) was below 1 µM. Taken in the same sequence, the figures for `Cc1cccc(C)c1-c1cc2nc(n1)NS(=O)(=O)c1cccc(c1)C(=O)N(Cc1cccc(N3CCC34CCCC4)n1)[C@H](CC(C)(C)C)CO2` [Compound 565] were above 60% and below 1 µM. The like results for `Cc1cccc(C)c1-c1cc2nc(n1)NS(=O)(=O)c1cccc(c1)C(=O)N(Cc1ncc(OC3CCCC3)cn1)[C@H](CC(C)(C)C)CO2` [Compound 566] were, in that order, above 60% and below 1 µM. The like results for `Cc1cccc(C)c1-c1cc2nc(n1)NS(=O)(=O)c1cccc(c1)C(=O)N(Cc1ncc(OCC(C)(C)C)cn1)[C@H](CC(C)(C)C)CO2` [Compound 567] were, in that order, above 60% and below 1 µM. Regarding `Cc1cccc(C)c1-c1cc2nc(n1)NS(=O)(=O)c1cccc(c1)C(=O)N(Cc1ncc(N3CCC(OC(C)C)CC3)cn1)[C@H](CC(C)(C)C)CO2` [Compound 568], the Emax is above 60%. The EC50 (read-out: HBE EC50) was below 1 µM.

For the compound `Cc1cccc(C)c1-c1cc2nc(n1)NS(=O)(=O)c1cccc(c1)C(=O)N(Cc1ncc(N3CCC[C@@H]3C)cn1)[C@H](CC(C)(C)C)CO2` [Compound 569], the Emax was above 60%. Moreover, the 50% effective concentration (EC50) (read-out: HBE EC50) is below 1 µM. The like results for `COC[C@H]1CCCN1c1cnc(CN2C(=O)c3cccc(c3)S(=O)(=O)Nc3nc(cc(-c4c(C)cccc4C)n3)OC[C@H]2CC(C)(C)C)nc1` [Compound 570] were, in that order, above 60% and below 1 µM. Taken in the same sequence, the figures for `COC[C@@H]1CCCN1c1cnc(CN2C(=O)c3cccc(c3)S(=O)(=O)Nc3nc(cc(-c4c(C)cccc4C)n3)OC[C@H]2CC(C)(C)C)nc1` [Compound 571] were above 60% and below 1 µM. Taken in the same sequence, the figures for `Cc1cccc(C)c1-c1cc2nc(n1)NS(=O)(=O)c1cccc(c1)C(=O)N(Cc1ncc(N3CCC[C@H]3C)cn1)[C@H](CC(C)(C)C)CO2` [Compound 572] were above 60% and below 1 µM. Regarding `Cc1cccc(C)c1-c1cc2nc(n1)NS(=O)(=O)c1cccc(c1)C(=O)N(Cc1cccc(N3CCC[C@H]3C)n1)[C@H](CC(C)C)CO2` [Compound 573], the Emax was above 60%. Also, under “read-out: HBE EC50”, the EC50 is below 1 µM. On to `Cc1cccc(C)c1-c1cc2nc(n1)NS(=O)(=O)c1cccc(c1)C(=O)N(Cc1ncc(CC(C)C)cn1)[C@H](CC(C)C)CO2` [Compound 574], for which the Emax was above 60%. Further, where the note is “read-out: HBE EC50”, the EC50 was below 1 µM. Consider `Cc1cccc(C)c1-c1cc2nc(n1)NS(=O)(=O)c1cccc(c1)C(=O)N(Cc1ncc(N(C)C3CC4(CC4)C3)cn1)[C@H](CC(C)(C)C)CO2` [Compound 575], for which the Emax is above 60%. Further, the EC50 (read-out: HBE EC50) was below 1 µM. Turning to `COc1cccc(C)c1-c1cc2nc(n1)NS(=O)(=O)c1cccc(c1)C(=O)N(Cc1ncc(CC(C)C)cn1)[C@H](CC(C)(C)C)CO2` [Compound 576], the activation at 10 µM was above 600%. Same read-out and setting: the value for `CC(C)=C(C)c1cccc(CN2C(=O)c3cccc(c3)S(=O)(=O)Nc3nc(cc(-c4c(C)cccc4C)n3)OC[C@H]2CC(C)(C)C)n1` [Compound 577] was above 600%; that for `COc1cccc(C)c1-c1cc2nc(n1)NS(=O)(=O)c1cccc(c1)C(=O)N(Cc1cccc(N3CCCC3C)n1)[C@H](CC(C)(C)C)CO2` (some centres unmarked) [Compound 578] was below 30%.

Turning to `COc1cccc(C)c1-c1cc2nc(n1)NS(=O)(=O)c1cccc(c1)C(=O)N(Cc1ncc(N3CCC(C)(C)C3)cn1)[C@H](CC(C)(C)C)CO2` [Compound 579], the Emax is above 60%. Besides, the EC50 (read-out: HBE EC50) was below 1 µM. The like results for `Cc1cccc(C)c1-c1cc2nc(n1)NS(=O)(=O)c1cccc(c1)C(=O)N(Cc1ncc(N3CCC4(COC4)C3)cn1)[C@H](CC(C)(C)C)CO2` [Compound 580] were, in that order, above 60% and below 1 µM. `Cc1cccc(C)c1-c1cc2nc(n1)NS(=O)(=O)c1cccc(c1)C(=O)N(Cc1cccc(N(C)C3CC4(CC4)C3)n1)[C@H](CC(C)(C)C)CO2` [Compound 581]: the Emax is above 60%. Further, the EC50 (read-out: HBE EC50) was below 1 µM. Taken in the same sequence, the figures for `Cc1cccc(C)c1-c1cc2nc(n1)NS(=O)(=O)c1cccc(c1)C(=O)N(Cc1cccc(CCC(C)(C)C)n1)[C@H](CC(C)(C)C)CO2` [Compound 582] were above 60% and below 1 µM. Taken in the same sequence, the figures for `Cc1cccc(C)c1-c1cc2nc(n1)NS(=O)(=O)c1cccc(c1)C(=O)N(Cc1cccc(CC(C)C)n1)[C@H](CC(C)(C)C)CO2` [Compound 583] were above 60% and below 1 µM. The like results for `Cc1cccc(C)c1-c1cc2nc(n1)NS(=O)(=O)c1cccc(c1)C(=O)N(Cc1ccnc(C(C)C)n1)[C@H](CC(C)(C)C)CO2` [Compound 584] were, in that order, above 60% and below 1 µM.

In the case of `COC1(C)CN(c2cnc(CN3C(=O)c4cccc(c4)S(=O)(=O)Nc4nc(cc(-c5c(C)cccc5C)n4)OC[C@H]3CC(C)(C)C)nc2)C1` [Compound 585], the Emax was above 60%. For the same compound, where the note is “read-out: HBE EC50”, the EC50 is below 1 µM.

Consider `Cc1cccc(C)c1-c1cc2nc(n1)NS(=O)(=O)c1cccc(c1)C(=O)N(Cc1ncc(N3CC(C)(O)C3)cn1)[C@H](CC(C)(C)C)CO2` [Compound 586], for which the Emax was above 60%. Further, under “read-out: HBE EC50”, the EC50 is below 1 µM.
